Assay [1] relates to Escherichia coli. Kind of assay: Antibacterial activity against Escherichia coli ATCC35218 assessed as bacterial growth inhibition measured after 18 to 24 hrs inhibition by broth microdilution assay. In kind it is functional. The settings on record: time 18-24 hrs. In general terms: Broth dilution looks for growth in wells or tubes with falling amounts of substance.
Assay [2] has as its system Pseudomonas aeruginosa. Kind of assay: Antibacterial activity against Pseudomonas aeruginosa ATCC43288 assessed as bacterial growth inhibition measured after 18 to 24 hrs inhibition by broth microdilution assay. The note with it: time 18-24 hrs. In kind it is functional.
The test system of assay [3] is Pseudomonas aeruginosa. Kind of assay: Antibacterial activity against Pseudomonas aeruginosa […] assessed as bacterial growth inhibition measured after 18 to 24 hrs inhibition by broth microdilution assay. In kind it is functional. The note with it: time 18-24 hrs.
Assay [4] concerns Escherichia coli. Kind of assay: Antibacterial activity against Escherichia coli assessed as bacterial growth inhibition by agar cup diffusion assay. Format: functional.
The subject of another assay is Klebsiella pneumoniae. Put plainly: Antibacterial activity against Klebsiella pneumoniae assessed as bacterial growth inhibition by agar cup diffusion assay. In kind it is functional.
Assay [5] has as its system Staphylococcus aureus. Put plainly: Antibacterial activity against Staphylococcus aureus assessed as bacterial growth inhibition by agar cup diffusion assay. In kind it is functional.
The subject of assay [6] is Mycobacterium tuberculosis. Kind of assay: Antimycobacterial activity against Mycobacterium tuberculosis H37Rv assessed as bacterial growth inhibition by agar cup diffusion assay. In kind it is functional.
Assay [7] deals with Mycobacterium tuberculosis. Put plainly: Antimycobacterial activity against pan sensitive Mycobacterium tuberculosis R2012-123 assessed as bacterial growth inhibition by agar cup diffusion assay. In kind it is functional.
Assay [8] deals with Staphylococcus aureus. Kind of assay: Potency index, ratio of ciprofloxacin MIC to test compound MIC for antimicrobial activity against Staphylococcus aureus assessed as bacterial growth inhibition by agar cup diffusion assay. Format: functional.
Assay [9] concerns Staphylococcus aureus. Kind of assay: Antibacterial activity against Staphylococcus aureus assessed as bacterial growth inhibition by broth microdilution assay. Format: functional.
The subject of assay [10] is Escherichia coli. Kind of assay: Antibacterial activity against Escherichia coli assessed as bacterial growth inhibition by broth microdilution assay. Format: functional.
In assay [11] the test system is Staphylococcus aureus. Put plainly: Potency index, ratio of norfloxacin MIC to test compound MIC for antimicrobial activity against Staphylococcus aureus assessed as bacterial growth inhibition measured after 18 to 24 hrs inhibition by broth microdilution assay. Format: functional. The settings on record: time 18-24 hrs.
For assay [12], the system named is Staphylococcus aureus. Put plainly: Antibacterial activity against Staphylococcus aureus ATCC 25923 assessed as zone of inhibition at 50 mg/ml by agar diffusion assay. The note with it: read-out: IZ. In kind it is functional.
Assay [13] deals with Escherichia coli. Kind of assay: Antibacterial activity against Escherichia coli ATCC 25922 assessed as zone of inhibition at 50 mg/ml by agar diffusion assay. The note with it: read-out: IZ. Format: functional. In general terms: Agar diffusion results depend on both activity and mobility in agar.
For assay [14], the system named is Staphylococcus aureus. Put plainly: Antibacterial activity against Staphylococcus aureus clinical isolate assessed as zone of inhibition at 50 mg/ml by agar diffusion assay. Format: functional. The note with it: read-out: IZ.
In assay [15] the test system is Escherichia coli. Kind of assay: Antibacterial activity against Escherichia coli clinical isolate assessed as zone of inhibition at 50 mg/ml by agar diffusion assay. In kind it is functional. The settings on record: read-out: IZ.
Assay [16] has as its system Escherichia coli. Put plainly: Antibacterial activity against Escherichia coli assessed as bacterial growth inhibition by agar well diffusion assay. Format: functional, organism-based.
Assay [17] deals with Pseudomonas aeruginosa. Kind of assay: Antibacterial activity against Pseudomonas aeruginosa assessed as bacterial growth inhibition by agar well diffusion assay. Format: functional, organism-based.
Assay [18] concerns Staphylococcus aureus. Put plainly: Antibacterial activity against Staphylococcus aureus assessed as bacterial growth inhibition by agar well diffusion assay. Format: functional, organism-based.
Another assay deals with Aspergillus niger. Kind of assay: Antifungal activity against Aspergillus niger assessed as fungal growth inhibition by agar well diffusion assay. Format: functional.
In the next assay the test system is Candida albicans. Kind of assay: Antifungal activity against Candida albicans assessed as fungal growth inhibition by agar well diffusion assay. In kind it is functional.
The test system of assay [19] is Staphylococcus aureus. Kind of assay: Antibacterial activity against Staphylococcus aureus ATCC 25923 assessed as bacterial growth inhibition measured after 18 to 24 hrs by agar dilution assay. In kind it is functional. The settings on record: time 18-24 hrs. (In general: In agar dilution, organisms are placed on agar that contains the substance at set levels.)
In assay [20] the test system is Staphylococcus aureus. Put plainly: Potency index, ratio of ciprofloxacin MIC to test compound MIC for antibacterial activity against Staphylococcus aureus ATCC 25923 assessed as bacterial growth inhibition measured after 18 to 24 hrs by agar dilution assay. Format: functional. The settings on record: time 18-24 hrs.
Assay [21] relates to Escherichia coli. Kind of assay: Antibacterial activity against Escherichia coli ATCC 25922 assessed as bacterial growth inhibition measured after 24 hrs by agar disc diffusion assay. In kind it is functional.
For assay [22], the system named is Pseudomonas aeruginosa. Put plainly: Antibacterial activity against Pseudomonas aeruginosa ATCC 27853 assessed as bacterial growth inhibition measured after 24 hrs by agar disc diffusion assay. In kind it is functional.
Assay [23] deals with Staphylococcus aureus. Kind of assay: Antibacterial activity against Staphylococcus aureus ATCC 29213 assessed as bacterial growth inhibition measured after 24 hrs by agar disc diffusion assay. In kind it is functional.
Assay [24] deals with Pseudomonas aeruginosa. Kind of assay: Antibacterial activity against Pseudomonas aeruginosa assessed as bacterial growth inhibition by agar cup diffusion assay. Format: functional.
The test system of assay [25] is Escherichia coli. Kind of assay: Potency index, ratio of ciprofloxacin MIC to test compound MIC for antimicrobial activity against Escherichia coli assessed as bacterial growth inhibition by agar cup diffusion assay. Format: functional.
For assay [26], the system named is Staphylococcus aureus. Put plainly: Antibacterial activity against Staphylococcus aureus assessed as bacterial growth inhibition measured after 16 to 24 hrs by broth microdilution assay. The settings on record: time 16-24 hrs. In kind it is functional.
Assay [27] has as its system Staphylococcus aureus. Put plainly: Antibacterial activity against methicillin resistant Staphylococcus aureus assessed as bacterial growth inhibition measured after 16 to 24 hrs by broth microdilution assay. In kind it is functional. The note with it: time 16-24 hrs.
A further assay has as its system Enterococcus. Kind of assay: Antibacterial activity against vancomycin resistant Enterococcus assessed as bacterial growth inhibition measured after 16 to 24 hrs by broth microdilution assay. The settings on record: time 16-24 hrs. In kind it is functional.
The next assay relates to Streptococcus agalactiae. Kind of assay: Antibacterial activity against Streptococcus agalactiae assessed as bacterial growth inhibition measured after 16 to 24 hrs by broth microdilution assay. Format: functional. The note with it: time 16-24 hrs.
Another assay relates to Haemophilus influenzae. Kind of assay: Antibacterial activity against Haemophilus influenzae assessed as bacterial growth inhibition measured after 16 to 24 hrs by broth microdilution assay. In kind it is functional. The settings on record: time 16-24 hrs.

SMILES strings stand for the structures. ≈ marks a conversion by molar mass, not a printed value.

For the compound `O=C(O)c1cn(C2CC2)c2cc(N3CCN(Cn4nc(CN5CCN(c6ccc([N+](=O)[O-])cc6)CC5)oc4=S)CC3)c(F)cc2c1=O`, the MIC in the assay on Escherichia coli [1], with Pseudomonas aeruginosa [2] and with Pseudomonas aeruginosa [3] was 0.03 µg/mL (≈ 0.0451 µM) each time.

For `C=CCn1c(SCC(=O)N2CCN(c3cc4c(cc3F)c(=O)c(C(=O)O)cn4C3CC3)CC2)nnc1-c1ccccc1`, the MIC in the assay with Escherichia coli [4] came to 1.7 µg/mL (≈ 2.89 µM); in the assay with Klebsiella pneumoniae it was 1.7 µg/mL (≈ 2.89 µM); in the assay on Staphylococcus aureus [5] it was 1.7 µg/mL (≈ 2.89 µM); in assay [6], 4 µg/mL (≈ 6.8 µM); in assay [7], 4 µg/mL (≈ 6.8 µM).

Take `O=C(O)c1cn(C2CC2)c2cc(N3CCN(Cc4nnc(-c5cccc(O)c5)o4)CC3)c(F)cc2c1=O`: the values for the MIC with Staphylococcus aureus [5], in the assay on Staphylococcus aureus [9] and in the assay on Escherichia coli [10] were 0.3 µg/mL (≈ 0.593 µM), 0.125 µg/mL (≈ 0.247 µM) and at most 0.125 µg/mL, respectively. Further, the Ratio result in the assay with Staphylococcus aureus [8] and in the assay on Staphylococcus aureus [11] was “>=4” throughout.

Take `COC(=O)c1cn(C2CC2)c2cc(N3CCN(C(=O)c4nnn(-c5ccc(SC)cc5)c4N)CC3)c(F)cc2c1=O`: the zone of inhibition at 50000 µg/mL in the assay on Staphylococcus aureus [12], in the assay with Escherichia coli [13], in the assay with Staphylococcus aureus [14] and with Escherichia coli [15] was 26.3 mm throughout.

With `C#CCSc1nnc(-c2cn(CC)c3cc(N4CCN(C(=O)C(O)(CC(=O)O)CC(=O)O)CC4)c(F)cc3c2=O)o1`, the MIC with Escherichia coli [16] stood at 1.61 µg/mL (≈ 2.74 µM); in the assay on Pseudomonas aeruginosa [17], 1.61 µg/mL (≈ 2.74 µM); in the assay with Staphylococcus aureus [18], 1.61 µg/mL (≈ 2.74 µM); in the assay on Aspergillus niger, 1.47 µg/mL (≈ 2.5 µM); in the assay on Candida albicans, 2.18 µg/mL (≈ 3.71 µM).

With `COC(=O)c1cn(C2CC2)c2cc(N3CCN(Cc4cn(-c5ccc(C(C)=O)cc5)nn4)CC3)c(F)cc2c1=O`, the MIC with Staphylococcus aureus [19] amounted to 3.12 µg/mL (≈ 5.73 µM). Moreover, in the assay on Staphylococcus aureus [20], the Ratio was found to be 2.

Take `COC(=O)[C@H](C)NC(=O)c1cc(=O)n(Cc2cn([C@@H](NC(=O)c3ccccc3)C(=O)OC)nn2)c2ccccc12`: the MIC with Escherichia coli [21], in the assay on Pseudomonas aeruginosa [22] and in the assay on Staphylococcus aureus [23] was 19 µg/mL (≈ 34.8 µM) in each case.

In the case of `COC(=O)[C@H](C)NC(=O)c1cc(=O)n(Cc2cn(C3O[C@H]4OC(C)(C)O[C@H]4[C@@H]4OC(C)(C)OC[C@@H]34)nn2)c2ccccc12` (stereo partly specified), the MIC with Escherichia coli [21], in the assay with Pseudomonas aeruginosa [22] and with Staphylococcus aureus [23] was 9.75 µg/mL (≈ 16.3 µM) each time.

With `COC(=O)c1cn(C2CC2)c2cc(N3CCN(C(=O)c4nnn(-c5ccc(OC)cc5)c4N)CC3)c(F)cc2c1=O`, the zone of inhibition at 50000 µg/mL in the assay on Staphylococcus aureus [12], in the assay on Escherichia coli [13], with Staphylococcus aureus [14] and in the assay with Escherichia coli [15] was 26.3 mm throughout.

`O=C(CN1CCN(c2cc3c(cc2F)c(=O)c(C(=O)O)cn3C2CC2)CC1)Nc1nnc(-c2ccccc2)s1`: the MIC in the assay with Escherichia coli [4] worked out at 1.12 µg/mL (≈ 2.04 µM); in the assay with Pseudomonas aeruginosa [24] it was 7.4 µg/mL (≈ 13.5 µM); with Klebsiella pneumoniae it was 1.12 µg/mL (≈ 2.04 µM); with Staphylococcus aureus [5], 1.12 µg/mL (≈ 2.04 µM); in assay [6], 8 µg/mL (≈ 14.6 µM); in [7], 8 µg/mL (≈ 14.6 µM). The Ratio in the assay on Staphylococcus aureus [8] and in the assay on Escherichia coli [25] was 4.6 in each case.

As for `CCOC(=O)c1cn(C2CC2)c2cc(N3CCN(Cc4cn(-c5ccc(C(C)=O)cc5)nn4)CC3)c(F)cc2c1=O`, in the assay with Staphylococcus aureus [19], the MIC amounted to 3.12 µg/mL (≈ 5.59 µM). In addition, the Ratio in the assay with Staphylococcus aureus [20] was 2.

Turning to `O=C(O)c1cn(C2CC2)c2cc(N3CCN(Cc4nnc(-c5ccc(O)cc5)o4)CC3)c(F)cc2c1=O`, the MIC with Staphylococcus aureus [5] is 0.2 µg/mL (≈ 0.396 µM); in the assay on Staphylococcus aureus [9], 0.125 µg/mL (≈ 0.247 µM); with Escherichia coli [10], at most 0.125 µg/mL. For the same compound, the Ratio result in the assay with Staphylococcus aureus [8] and with Staphylococcus aureus [11] was “>=4” in each case.

Consider `Clc1ccccc1C(c1ccccc1)(c1ccccc1)n1ccnc1` [CLOTRIMAZOLE], for which the MIC in the assay with Aspergillus niger amounted to 1.56 µg/mL (≈ 4.52 µM); in the assay on Candida albicans, 1.28 µg/mL (≈ 3.71 µM).

Turning to `CC(=O)NC[C@H]1CN(c2ccc(N3CCOCC3)c(F)c2)C(=O)O1` [LINEZOLID], the MIC in the assay with Staphylococcus aureus [26], in the assay with Staphylococcus aureus [27], with Enterococcus, in the assay with Streptococcus agalactiae and with Haemophilus influenzae was 1 µg/mL (≈ 2.96 µM) in each case.

Values taken from ChEMBL document CHEMBL5360532, “Current scenario of quinolone hybrids with potential antibacterial activity against ESKAPE pathogens” (Eur J Med Chem, 2023).
